In PubChem BioAssay AID1919016 (Molecular Pharmacology Branch, DTP, NCI, 2023):
Values joined by “and” are separate entries in the source; they are usually repeats but may differ in a detail not shown here. Equal values may be shown once.

Tested on: NCI-H196 complex spheroid growth, percent test/control
Assay: Anticancer human tumor NCI-H196 cell line growth inhibition [AhR];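 note: seven days of drug exposure starting three days after plating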;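 for viability, T/C: 100% = DMSO vehicle control wells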
Conditions: for viability, T/C: stronger effect = lower value
Outline: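 Spheroids combined tumor cells with HUVEC endothelial cells and human MSCs as stroma. AhR antagonists were paired with standard or investigational drugs, each dosed in half-log steps down from near clinical Cmax, or from 10 microM where Cmax was unknown.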

[1] = curve of first compound, second compound 0.1 µM
[2] = curve of first compound, second compound 0.316 µM
[3] = curve of first compound, second compound 1 µM
[4] = curve of first compound, second compound 3.16 µM
[5] = curve of first compound, second compound 10 µM
[6] = second compound 0.1 µM, first compound 0.000949 µM
[7] = second compound 0.1 µM, first compound 0.003 µM
[8] = second compound 0.1 µM, first compound 0.00949 µM
[9] = second compound 0.1 µM, first compound 0.03 µM
[10] = second compound 0.1 µM, first compound 0.0949 µM
[11] = second compound 0.1 µM, first compound 0.3 µM
[12] = second compound 0.316 µM, first compound 0.000949 µM
[13] = second compound 0.316 µM, first compound 0.003 µM
[14] = second compound 0.316 µM, first compound 0.00949 µM
[15] = second compound 0.316 µM, first compound 0.03 µM
[16] = second compound 0.316 µM, first compound 0.0949 µM
[17] = second compound 0.316 µM, first compound 0.3 µM
[18] = second compound 1 µM, first compound 0.000949 µM
[19] = second compound 1 µM, first compound 0.003 µM
[20] = second compound 1 µM, first compound 0.00949 µM
[21] = second compound 1 µM, first compound 0.03 µM
[22] = second compound 1 µM, first compound 0.0949 µM
[23] = second compound 1 µM, first compound 0.3 µM
[24] = second compound 3.16 µM, first compound 0.000949 µM
[25] = second compound 3.16 µM, first compound 0.003 µM
[26] = second compound 3.16 µM, first compound 0.00949 µM
[27] = second compound 3.16 µM, first compound 0.03 µM
[28] = second compound 3.16 µM, first compound 0.0949 µM
[29] = second compound 3.16 µM, first compound 0.3 µM
[30] = second compound 10 µM, first compound 0.000949 µM
[31] = second compound 10 µM, first compound 0.003 µM
[32] = second compound 10 µM, first compound 0.00949 µM
[33] = second compound 10 µM, first compound 0.03 µM
[34] = second compound 10 µM, first compound 0.0949 µM
[35] = second compound 10 µM, first compound 0.3 µM
[36] = second compound 0.1 µM, first compound 0.0316 µM
[37] = second compound 0.1 µM, first compound 0.1 µM
[38] = second compound 0.1 µM, first compound 0.316 µM
[39] = second compound 0.1 µM, first compound 1 µM
[40] = second compound 0.316 µM, first compound 0.0316 µM
[41] = second compound 0.316 µM, first compound 0.1 µM
[42] = second compound 0.316 µM, first compound 0.316 µM
[43] = second compound 0.316 µM, first compound 1 µM
[44] = second compound 1 µM, first compound 0.0316 µM
[45] = second compound 1 µM, first compound 0.1 µM
[46] = second compound 1 µM, first compound 0.316 µM
[47] = second compound 1 µM, first compound 1 µM
[48] = second compound 3.16 µM, first compound 0.0316 µM
[49] = second compound 3.16 µM, first compound 0.1 µM
[50] = second compound 3.16 µM, first compound 0.316 µM
[51] = second compound 3.16 µM, first compound 1 µM
[52] = second compound 10 µM, first compound 0.0316 µM
[53] = second compound 10 µM, first compound 0.1 µM
[54] = second compound 10 µM, first compound 0.316 µM
[55] = second compound 10 µM, first compound 1 µM
[56] = second compound 0.1 µM, first compound 3.16 µM
[57] = second compound 0.1 µM, first compound 10 µM
[58] = second compound 0.316 µM, first compound 3.16 µM
[59] = second compound 0.316 µM, first compound 10 µM
[60] = second compound 1 µM, first compound 3.16 µM
[61] = second compound 1 µM, first compound 10 µM
[62] = second compound 3.16 µM, first compound 3.16 µM
[63] = second compound 3.16 µM, first compound 10 µM
[64] = second compound 10 µM, first compound 3.16 µM
[65] = second compound 10 µM, first compound 10 µM

## CC(C)CC(NC(=O)C(Cc1ccccc1)NC(=O)c1cnccn1)B(O)O (configuration not stated) + Cc1cncc(-c2nc(NCCc3c[nH]c4ccccc34)c3ncn(C(C)C)c3n2)c1
[1]
  IC50: 7.65 nM
[2]
  IC50: 8.51 nM
[3]
  IC50: 7.35 nM
[4]
  IC50: 9.9 nM
[5]
  IC50: 5.54 nM
[6]
  viability, T/C: 98.2%
[7]
  viability, T/C: 109%
[8]
  viability, T/C: 37.6%
[9]
  viability, T/C: 1.78%
[10]
  viability, T/C: 1.16%
[11]
  viability, T/C: 1.38%
[12]
  viability, T/C: 95.2%
[13]
  viability, T/C: 99.1%
[14]
  viability, T/C: 45%
[15]
  viability, T/C: 1.25%
[16]
  viability, T/C: 2.43%
[17]
  viability, T/C: 1.51%
[18]
  viability, T/C: 102%
[19]
  viability, T/C: 98.7%
[20]
  viability, T/C: 36.1%
[21]
  viability, T/C: 1.32%
[22]
  viability, T/C: 1.62%
[23]
  viability, T/C: 0.94%
[24]
  viability, T/C: 105%
[25]
  viability, T/C: 103%
[26]
  viability, T/C: 51.9%
[27]
  viability, T/C: 0.84%
[28]
  viability, T/C: 0.89%
[29]
  viability, T/C: 2.1%
[30]
  viability, T/C: 83.2%
[31]
  viability, T/C: 95%
[32]
  viability, T/C: 15.8%
[33]
  viability, T/C: 0.72%
[34]
  viability, T/C: 0.96%
[35]
  viability, T/C: 1.09%

## NS(=O)(=O)OCC1CC(n2ccc3c(NC4CCc5ccccc54)ncnc32)CC1O (configuration not stated)
Compound 0.0316 µM
  viability, T/C: 78.8% and 89.8% and 79.4%
Compound 0.1 µM
  viability, T/C: 71.8% and 85.1% and 80.3%
Compound 0.316 µM
  viability, T/C: 92% and 82% and 79.9%
Compound 1 µM
  viability, T/C: 52.6% and 59.9% and 65.8%
Compound 3.16 µM
  viability, T/C: 74.1% and 65.6% and 55.6%
Compound 10 µM
  viability, T/C: 69.5% and 70.9% and 55.7%
Curve of compound
  IC50: > 10000 nM

## CC(C)CC(NC(=O)C(Cc1ccccc1)NC(=O)c1cnccn1)B(O)O (configuration not stated) + Cc1ccccc1N=Nc1ccc(NC(=O)c2ccnn2C)c(C)c1
[1]
  IC50: 14.4 nM
[2]
  IC50: 15.6 nM
[3]
  IC50: 15.8 nM
[4]
  IC50: 15.9 nM
[5]
  IC50: 16.8 nM
[6]
  viability, T/C: 97.6%
[7]
  viability, T/C: 101%
[8]
  viability, T/C: 74.9%
[9]
  viability, T/C: 6.41%
[10]
  viability, T/C: 4.21%
[11]
  viability, T/C: 5.04%
[12]
  viability, T/C: 93.6%
[13]
  viability, T/C: 96.4%
[14]
  viability, T/C: 83.1%
[15]
  viability, T/C: 6.9%
[16]
  viability, T/C: 4.16%
[17]
  viability, T/C: 3.98%
[18]
  viability, T/C: 90.8%
[19]
  viability, T/C: 101%
[20]
  viability, T/C: 83%
[21]
  viability, T/C: 8.93%
[22]
  viability, T/C: 4.78%
[23]
  viability, T/C: 6.96%
[24]
  viability, T/C: 97.4%
[25]
  viability, T/C: 95.8%
[26]
  viability, T/C: 83.8%
[27]
  viability, T/C: 8.44%
[28]
  viability, T/C: 3.34%
[29]
  viability, T/C: 3.4%
[30]
  viability, T/C: 89.2%
[31]
  viability, T/C: 90.5%
[32]
  viability, T/C: 85.1%
[33]
  viability, T/C: 14.6%
[34]
  viability, T/C: 8.98%
[35]
  viability, T/C: 5.84%

## Nc1ncn(C2CC(O)C(CO)O2)c(=O)n1 (configuration not stated) + Cc1cncc(-c2nc(NCCc3c[nH]c4ccccc34)c3ncn(C(C)C)c3n2)c1
[1]
  IC50: > 1000 nM
[2]
  IC50: > 1000 nM
[3]
  IC50: > 1000 nM
[4]
  IC50: > 1000 nM
[5]
  IC50: > 1000 nM
Second compound 0.1 µM, first compound 0.00316 µM
  viability, T/C: 110%
Second compound 0.1 µM, first compound 0.01 µM
  viability, T/C: 105%
[36]
  viability, T/C: 104%
[37]
  viability, T/C: 97.9%
[38]
  viability, T/C: 107%
[39]
  viability, T/C: 99.8%
Second compound 0.316 µM, first compound 0.00316 µM
  viability, T/C: 106%
Second compound 0.316 µM, first compound 0.01 µM
  viability, T/C: 98.5%
[40]
  viability, T/C: 114%
[41]
  viability, T/C: 104%
[42]
  viability, T/C: 105%
[43]
  viability, T/C: 105%
Second compound 1 µM, first compound 0.00316 µM
  viability, T/C: 122%
Second compound 1 µM, first compound 0.01 µM
  viability, T/C: 106%
[44]
  viability, T/C: 115%
[45]
  viability, T/C: 96.3%
[46]
  viability, T/C: 117%
[47]
  viability, T/C: 103%
Second compound 3.16 µM, first compound 0.00316 µM
  viability, T/C: 102%
Second compound 3.16 µM, first compound 0.01 µM
  viability, T/C: 112%
[48]
  viability, T/C: 109%
[49]
  viability, T/C: 111%
[50]
  viability, T/C: 108%
[51]
  viability, T/C: 109%
Second compound 10 µM, first compound 0.00316 µM
  viability, T/C: 96.2%
Second compound 10 µM, first compound 0.01 µM
  viability, T/C: 86.9%
[52]
  viability, T/C: 104%
[53]
  viability, T/C: 89.6%
[54]
  viability, T/C: 87.8%
[55]
  viability, T/C: 86.1%

## Cc1cncc(-c2nc(NCCc3c[nH]c4ccccc34)c3ncn(C(C)C)c3n2)c1
Compound 0.1 µM
  viability, T/C: 96.5% [middle of 20 runs]
Compound 0.316 µM
  viability, T/C: 99% [middle of 20 runs]
Compound 1 µM
  viability, T/C: 101% [middle of 20 runs]
Compound 3.16 µM
  viability, T/C: 106% [middle of 20 runs]
Compound alone, run of 08/16/2022
  IC50: > 10000 nM

## CC(C)c1c(-c2ccccc2)nc2c(C#N)c[nH]n2c1=O + Cc1cncc(-c2nc(NCCc3c[nH]c4ccccc34)c3ncn(C(C)C)c3n2)c1
[1]
  IC50: > 10000 nM
[2]
  IC50: > 10000 nM
[3]
  IC50: > 10000 nM
[4]
  IC50: > 10000 nM
[5]
  IC50: > 10000 nM
[36]
  viability, T/C: 107%
[37]
  viability, T/C: 110%
[38]
  viability, T/C: 105%
[39]
  viability, T/C: 100%
[56]
  viability, T/C: 117%
[57]
  viability, T/C: 106%
[40]
  viability, T/C: 103%
[41]
  viability, T/C: 120%
[42]
  viability, T/C: 113%
[43]
  viability, T/C: 109%
[58]
  viability, T/C: 113%
[59]
  viability, T/C: 107%
[44]
  viability, T/C: 120%
[45]
  viability, T/C: 112%
[46]
  viability, T/C: 115%
[47]
  viability, T/C: 103%
[60]
  viability, T/C: 112%
[61]
  viability, T/C: 101%
[48]
  viability, T/C: 116%
[49]
  viability, T/C: 117%
[50]
  viability, T/C: 119%
[51]
  viability, T/C: 102%
[62]
  viability, T/C: 115%
[63]
  viability, T/C: 112%
[52]
  viability, T/C: 75.9%
[53]
  viability, T/C: 86.7%
[54]
  viability, T/C: 89.5%
[55]
  viability, T/C: 86.9%
[64]
  viability, T/C: 80.7%
[65]
  viability, T/C: 80.7%

## COc1ccc([C@@H](O)c2cc(-c3ncnc4cc(N5CCOCC5)ccc34)c(F)cc2Cl)nn1 + Cc1ccccc1N=Nc1ccc(NC(=O)c2ccnn2C)c(C)c1
[1]
  IC50: > 10000 nM
[2]
  IC50: > 10000 nM
[3]
  IC50: > 10000 nM
[4]
  IC50: > 10000 nM
[5]
  IC50: > 10000 nM
[36]
  viability, T/C: 97.4%
[37]
  viability, T/C: 92.5%
[38]
  viability, T/C: 96%
[39]
  viability, T/C: 81.8%
[56]
  viability, T/C: 72.8%
[57]
  viability, T/C: 65.4%
[40]
  viability, T/C: 95.3%
[41]
  viability, T/C: 102%
[42]
  viability, T/C: 90%
[43]
  viability, T/C: 78.3%
[58]
  viability, T/C: 68.9%
[59]
  viability, T/C: 68%
[44]
  viability, T/C: 85.7%
[45]
  viability, T/C: 88%
[46]
  viability, T/C: 88.6%
[47]
  viability, T/C: 89.3%
[60]
  viability, T/C: 72.6%
[61]
  viability, T/C: 66.6%
[48]
  viability, T/C: 97.3%
[49]
  viability, T/C: 96.8%
[50]
  viability, T/C: 86.8%
[51]
  viability, T/C: 77.1%
[62]
  viability, T/C: 74.6%
[63]
  viability, T/C: 65.1%
[52]
  viability, T/C: 88.1%
[53]
  viability, T/C: 83.8%
[54]
  viability, T/C: 79.4%
[55]
  viability, T/C: 73.1%
[64]
  viability, T/C: 76.5%
[65]
  viability, T/C: 60.3%
